Several values for one entry are separate records, joined by “and”; a condition that tells them apart may be missing. Identical values can stand only once.

In series [1] the test system is OE33 cells. Put plainly: Apparent dissociation constant by flow cytometry with OE33 cells. It is filed as binding, human. On the procedure: The apparent dissociation constant (Kd) was measured to assess binding affinity of the heterodimer to OE33 cells. The heterodimer was serially diluted in PBS at concentrations of about 0, 10, 25, 50, 100, and 200 nM with about […] at 4° C. for one hour and washed with cold PBS. The mean fluorescence intensities were measured with flow cytometry (BD LSRII, BD Biosciences). The equilibrium dissociation constant Kd 1/Ka was calculated with a least-squares fit of the data to the nonlinear equation I=(I0+ImaxKa[X])/(I0+Ka[X]). I0 and Imax are the initial and maximum fluorescence intensities, corresponding to no peptide and at saturation, respectively, and [X] represents the concentration of bound peptide. Prism 5.0 software (Graphpad Inc.) was used to calculate Kd and Ka.

Series [2] concerns OE33 xenograft tumors. Put plainly: In vivo NIR fluorescence imaging of OE33 xenograft tumors (Cy5.5). Also noted: species or system nude mice. On the procedure: (§1) Optical imaging was performed in nude mice bearing xenograft tumors in vivo to characterize pharmacokinetics and assess toxicity. All experimental procedures were performed in accordance with relevant guidelines and regulations of the University of Michigan, and all animal studies were conducted with approval by the University Committee on the Use and Care of Animals (UCUCA). Animals were housed per guidelines of the Unit for Laboratory Animal Medicine (ULAM).
Female athymic nude mice (002019 Foxn1, Jackson Laboratories) were obtained at 4-5 weeks of age, and were housed with four animals per cage and fed with sterilized pellet chow and water. Mice were anesthetized in an isoflurane chamber, and OE33 xenograft tumors were generated by subcutaneous injection of about 5×10^7 tumor cells suspended in […] of sterile PBS in the hind limb flank. Mice were studied at about 3-4 weeks post-inoculation when the tumor volume reached about 0.5-0.8 cm in size.
In vivo fluorescence images were collected using the Xenogen IVIS™ 200 small animal imaging system. Fluorescence intensities were measured and normalized. […] Images were collected prior to peptide injection to assess baseline auto-fluorescence values and then at various time points post-injection up to 24 hours, FIG. 5A. Fluorescence images were excited at λex=675 nm, and emission was collected at λem=740 nm with 5 sec exposure (f/stop=8).

In series [3] the test system is OE33 human esophageal adenocarcinoma cells. Put plainly: Confocal microscopy binding of heterodimer versus monomers to OE33 cells. It is filed as cell-based.
The test system of series [4] is SKBr3 cells. The series can be described thus: Heterodimer internalization in SKBr3 cells over time (confocal). The series is classed as cell-based, human. On the procedure: Using confocal microscopy, images were collected over time to evaluate heterodimer internalization. […] Binding by anti-EGFR-AF568 (yellow) and anti-ErbB2-AF488 (green) to the surface (arrows) of the same cells is shown for comparison. On the merged images, a Pearson's correlation coefficient was measured for the heterodimer with the anti-EGFR antibody (ρ=0.77) and the anti-ErbB2 (ρ=0.65) antibody. […] The DAPI images highlight the location of cell nuclei prior to heterodimer incubation, FIG. 3B. Binding of QRH*-KSP*-E3-Cy5.5 (red) to the cell surface is seen at […]. The heterodimer starts to internalize at 4 min, and complete internalization is seen at 40 min.

Series [5] is described as follows: Acute toxicity, histology (H&E) of major organs. It is filed as in vivo, mice. To be noted: brain, heart, kidney, liver, spleen and lung; after day 15. On the procedure: as §1
Series [6] has as its system EGFR and/or ErbB2 in SKBr3 cells. The series can be described thus: Co-localization of Cy5.5 heterodimer with anti-EGFR and anti-ErbB2 antibodies on SKBr3 cells. It is filed as cell-based, human. To be noted: confocal microscopy. Here is the method: Co-localization experiments were performed to validate specific heterodimer binding to EGFR and/or ErbB2 in SKBr3 cells. Cells were cultured to about 70% confluence on glass coverslips, washed with PBS, and incubated with 2% BSA in PBS for 30 min to block non-specific binding. 1 μM of Cy5.5-labeled peptides were added and incubated for 30 min or 1 hour at 4° C. The cells were then washed 3× with PBS, fixed with ice cold 4% paraformaldehyde (PFA) for 10 min, washed with PBS 1×, and then mounted on glass slides with ProLong Gold reagent containing DAPI (Invitrogen).
For antibody staining, cells were incubated with either anti-EGFR (1:500, #2232S) or anti-ErbB2 (1:500, #29D8) primary antibody from Cell Signaling Inc overnight at 4° C. after fixation, and then washed with PBS 3× and processed with secondary antibody staining. Either goat anti-rabbit IgG (H+L) labeled with Alexa-Fluor 488 (1:1000, #A-11008, Invitrogen) or goat anti-mouse IgG (H&L) labeled with Alexa-Fluor 568 (1:1000, #ab175473, Abcam) was added and incubated for 1 hour at room temperature (RT). The cells were washed with PBS 3×, and mounted onto glass coverslips. Confocal fluorescence images were collected using DAPI, AF488, AF568 and Cy5.5 filter sets. Fluorescence intensities from 3 independent images were quantified using custom Matlab (Mathworks) software.

Series [7] deals with OE33 xenograft tumors. Put plainly: In vivo competition with unlabeled peptide monomers. To be noted: two hours after heterodimer injection. More on the design: species or system mice. Here is the method:
In vivo heterodimer specificity was assessed by competition with 3000 μM of unlabeled peptide monomer or a mixture of two monomers diluted in 50 μL of PBS injected 20 min beforehand in tumor-bearing mice (n=4 per group). Blocking studies were carried out by injecting unlabeled QRH*, KSP*, and both monomers together to validate in vivo specificity. Images were collected at two hours after heterodimer injection when peak uptake was expected. The ratio of fluorescence intensity in tumor was calculated using regions of interest (ROI), and the results were presented as mean±standard deviation (SD).

Series [8] deals with OE33 cells. The series can be described thus: Apparent association time constant by flow cytometry with OE33 cells. It is filed as binding, human. On the procedure:
The apparent association time constant (Ka) was measured to assess binding kinetics to OE33 cells. OE33 cells were grown to about 80% confluence in 10 cm dishes, and cells were then detached with PBS-based cell dissociation buffer (Invitrogen). About 10^5 cells were incubated with 1 μM of the heterodimer at 4° C. for different time periods ranging from […]. The cells were centrifuged, washed with cold PBS, and fixed with 4% PFA. Flow cytometry was performed, and the median fluorescence intensity (y) was ratioed with that of OE33 cells without addition of peptide at time points (t) using Flowjo software. The rate constant K was calculated by fitting the data to the first-order kinetics model, y(t)=Imax[1−exp^(−kt)], where Imax=maximum value, using Prism 5.0 software.

Consider “heterodimer of QRHKPRE (SEQ ID NO: 1) and KSPNPRF (SEQ ID NO: 2) with E3 (triethyleneglycol) linker, Cy5.5 label [QRH*-KSP*-E3-Cy5.5]”, for which, in series [1], the “improved binding affinity compared with either monomer alone” value is listed as 2 fold. Also, in series [1] (flow cytometry, 4° C.), the Kd was determined as 23 nM. In addition, the “peak mean tumor signal versus control peptide” value in series [2] (about 2 hours after intravenous injection, n=6) is “significantly greater”. In series [2] (intravenous, OE33 xenograft), the “time of return of signal to baseline / systemic clearance” value is listed as “about 24 hours”. Further, in series [3], the “greater fluorescence intensity compared with either monomer alone” value came to 3 fold. In series [4], the “time at which heterodimer starts to internalize” value was 4 min and 8 to 20 min; the “time of complete internalization / strong signal inside cells” value was 40 min. Further, in series [5], the “acute toxicity on histology (H&E)” value is on record as “no sign of acute toxicity”. For the same substance, the “binding to surface of SKBr3 cells” value in series [6] is listed as “bind strongly”. The “tumor signal after prior injection of unlabeled QRH*, KSP*, or both” value in series [7] is “reduction of signal”. Further, the “apparent association time constant Ka” value in series [8] (flow cytometry, 1 μM, 4° C.) was 0.22 min⁻¹. For the same substance, the “apparent association time constant (time)” value in series [8] (value in brackets after Ka) was 4.5 min.

These data come from patent publication US20250263439A1, “HETERODIMERIC PEPTIDE REAGENTS AND METHODS” (REGENTS OF THE UNIVERSITY OF MICHIGAN, priority 2018, published 2025).
